In US20100286254A1 (ANTISOMA RESEARCH LIMITED, priority 2007, published 2010):
Where a name gives a salt, the structure may show the parent alone.

Legend:
human tumours = conditions: monotherapy, cited from earlier work
[1] = test system: syngeneic murine tumours or human tumour xenografts; conditions: mouse, in vivo; cited from earlier work
Hygroscopicity = format: physicochemical; conditions: sodium salt
[2] = Storage under controlled relative humidity (solid form stability); format: physicochemical
From the text: A high relative humidity is here defined as a relative humidity of about 70 to 90%. […] In particular, the water content can be well controlled and remains constant, over time.

[3] = Dynamic Vapour Sorption (DVS) experiment; format: physicochemical; conditions: 25° C.
Experimental: DVS: Dynamic vapour sorption measurements were carried out with an instrument of Surface Measurement Systems (http:www.smsuk.co.uk). The weight change of the investigated sample is monitored while the relative humidity is changed over a range from 0% r.h. to 95% r.h. at a change rate of 5% per hour.
About 10 mg of a mixture of forms B and C is placed into a suitable sample pan and investigated with a dynamic vapour sorption apparatus of Surface Measurement Systems, DVS-1 (series 1000) using software version DVS win SP2, V3.01 at 25° C. The initial relative humidity is 50% and the initial mass is 100%, thereafter the humidity is increased to 95% and kept at this level for 2 hours, then the humidity is decreased to 0%, and kept at 0% during 10 hours, then raised again to 95%. Change rates are always 5% per hour.

[4] = 52% relative humidity, ambient temperature, about two weeks

Cc1ccc2c(=O)c3cccc(CC(=O)O)c3oc2c1C [DMXAA]
tumour responses (human tumours; phase I trials): few tumour responses were achieved | tumour blood flow (human tumours; well-tolerated doses, dynamic MRI): significant reduction in tumour blood flow | antivascular activity, tumour blood flow [1]: prolonged inhibition of tumour blood flow leading to extensive regions of haemorrhagic necrosis

Cc1ccc2c(=O)c3cccc(CC(=O)O)c3oc2c1C [amorphous DMXAA sodium salt, DMXAA sodium salt, reference compound]
hygroscopicity (Hygroscopicity): very hygroscopic

Cc1ccc2c(=O)c3cccc(CC(=O)O)c3oc2c1C [form E, DMXAA sodium salt]
hygroscopicity (Hygroscopicity): hygroscopic

Cc1ccc2c(=O)c3cccc(CC(=O)O)c3oc2c1C [form F, DMXAA sodium salt]
change of the crystal form on storage [2, 4]: did not lead to a change of the crystal form | water content after storage [2, 4]: about 3% | form conversion on storage ([2]; 75% relative humidity at 40° C.): transforms into form B within a few days | form conversion on storage ([2]; open container, 75% relative humidity, about 34 hours): transformed into form B | hygroscopicity (Hygroscopicity): hygroscopic

Cc1ccc2c(=O)c3cccc(CC(=O)O)c3oc2c1C [form L, DMXAA sodium salt]
hygroscopicity (Hygroscopicity): hygroscopic

Cc1ccc2c(=O)c3cccc(CC(=O)[O-])c3oc2c1C.[Na+] [mixture of forms B and C, DMXAA sodium salt]
water adsorbed ([3]; at 95% r.h.): about 1% | water release ([3]; scanning r.h. to 0%): all the water is released
